Experiments:
morningglory = assay: Test B pre/postemergence morningglory; format: in vivo, Ipomoea hederacea
In short: (§1)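 Herbicidal effect was estimated by eye on a ten-point control scale after plants spent twelve to sixteen days in a greenhouse following soil or foliar treatment. Foliar sprays targeted plants at one to four leaves; all doses were formulated in a non-phytotoxic solvent with surfactant.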

pigweed = assay: Test B pre/postemergence pigweed; format: in vivo, Amaranthus retroflexus
In short: as §1

wild oat [1] = assay: Test B pre/postemergence wild oat; format: in vivo, Avena fatua
In short: as §1

Alexandergrass = assay: Test D Alexandergrass; format: in vivo, Brachiaria plantaginea; details: Preemergence, 0 to 100 scale
In short: (§2)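 Values are visual plant-response ratings (0 no injury, 100 complete control) recorded 14 to 21 days after herbicide treatment, using a non-phytotoxic solvent mixture containing surfactant. Preemergence applications went to the surface of pots holding freshly sown seed in sandy loam.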

guineagrass = assay: Test D guineagrass; format: in vivo, Panicum maximum; details: Preemergence, 0 to 100 scale
In short: as §2

Spanishneedles = assay: Test D Spanishneedles; format: in vivo, Bidens bipinnata; details: Preemergence, 0 to 100 scale
In short: as §2

tall mallow = assay: Test D tall mallow; format: in vivo, Malva sylvestris; details: Preemergence, 0 to 100 scale
In short: as §2

winter wheat [2] = assay: Test E winter wheat; format: in vivo, Triticum aestivum; details: Postemergence
In short: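 Postemergence: 60:40 sandy loam/greenhouse potting mix, 1- to 4-leaf stage. Formulation: solvent plus surfactant. Assessment: visual comparison with untreated controls at ~21–28 days.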

Green foxtail [3] = assay: Test D green foxtail; format: in vivo
In short: as §2

blackgrass = assay: Test E blackgrass; format: in vivo, Alopecurus myosuroides; details: Preemergence
green foxtail [4] = assay: Test E green foxtail; format: in vivo, Setaria viridis; details: Preemergence
Italian ryegrass = assay: Test E Italian ryegrass; format: in vivo, Lolium multiflorum; details: Preemergence
winter wheat [5] = assay: Test E winter wheat; format: in vivo, Triticum aestivum; details: Preemergence
wild oat [6] = assay: Test E wild oat; format: in vivo, Avena fatua; details: Preemergence
winter barley = assay: Test E winter barley; format: in vivo, Hordeum vulgare; details: Preemergence
[7] = Postemergence, Rate 125 g/ha, scale of 0 to 10 where 0 is no effect and 10 is complete control
[8] = Preemergence, Rate 62 g/ha, scale 0 to 10 (0 no effect, 10 complete control)
[9] = Preemergence, Rate 125 g/ha, 0 is no effect, 10 is complete control
[10] = Preemergence, Rate 250 g/ha, scale 0 to 10, 0 is no effect, 10 is complete control
[11] = Preemergence, Rate 500 g/ha, scale 0 to 10 (0 no effect, 10 complete control)
[12] = Rate 62 g/ha, Postemergence, scale of 0 to 10 where 0 is no effect and 10 is complete control
[13] = Rate 250 g/ha, Postemergence, scale 0 to 10, 0 is no effect, 10 is complete control
[14] = Rate 500 g/ha, Postemergence, scale 0 to 10
[15] = Rate 64 g/ha, 0 no injury, 100 complete control
[16] = Rate 125 g/ha, 0 no injury, 100 complete control
[17] = Rate 64 g/ha, Preemergence; 0 to 100 scale, 0 no injury, 100 complete control
[18] = Rate 125 g/ha, Preemergence; 0 to 100 scale, 0 no injury, 100 complete control
[19] = Rate 250 g/ha; Preemergence; 0 to 100 scale
[20] = Rate 500 g/ha, Preemergence; 0 to 100 scale
[21] = Rate 62 g/ha, 0 to 100 scale, 0 no effect, 100 complete control
[22] = Rate 125 g/ha, 0 to 100 scale (0 no effect, 100 complete control)
[23] = Postemergence, Rate 62 g/ha, scale 0 to 10, 0 is no effect, 10 is complete control
[24] = Postemergence, Rate 250 g/ha, scale 0 to 10, 0 no effect, 10 complete control
[25] = Preemergence, Rate 31 g/ha, visual rating, scale 0 to 10 (0 no effect, 10 complete control)
[26] = Preemergence, Rate 62 g/ha, scale 0 to 10, 0 is no effect, 10 is complete control
[27] = Preemergence, Rate 125 g/ha, scale 0 to 10 (0 no effect, 10 complete control)
[28] = Preemergence, Rate 250 g/ha, scale of 0 to 10 where 0 is no effect and 10 is complete control
[29] = Rate 31 g/ha, Postemergence, scale 0 to 10
[30] = Rate 125 g/ha, Postemergence, scale 0 to 10, 0 no effect, 10 complete control
[31] = Rate 16 g/ha, 0 no injury, 100 complete control
[32] = Rate 32 g/ha, 0 no injury, 100 complete control
[33] = Rate 1000 g/ha, 0 to 100 scale where 0 is no effect and 100 is complete control
[34] = Rate 500 g/ha, 0 to 100 scale where 0 is no effect and 100 is complete control

CC(C)N(C(=O)n1oc(=O)n(C)c1=O)c1ccc(F)cc1 [Compound 138]
Morningglory plant response rating (morningglory; [7]): 5
Morningglory plant response rating (morningglory; [8]): 0
Morningglory plant response rating (0 to 10 scale) (morningglory; [9]): 0
Morningglory plant response rating (morningglory; [10]): 3
Morningglory plant response rating (morningglory; [11]): 4
Morningglory plant response rating (morningglory; [12]): 5
Plant response rating, Morningglory (morningglory; [13]): 6
Morningglory plant response rating (morningglory; [14]): 10
Redroot pigweed plant response rating (pigweed; [7]): 5
Redroot pigweed plant response rating (pigweed; [8]): 9
Redroot pigweed plant response rating (0 to 10 scale) (pigweed; [9]): 10
Redroot pigweed plant response rating (pigweed; [10]): 10
Redroot pigweed plant response rating (pigweed; [11]): 10
Redroot pigweed plant response rating (pigweed; [12]): 3
Plant response rating, Redroot pigweed (pigweed; [13]): 7
Redroot pigweed plant response rating (pigweed; [14]): 8
Wild oats plant response rating (wild oat [1]; [7]): 2
Wild oats plant response rating (wild oat [1]; [8]): 5
Wild oats plant response rating (0 to 10 scale) (wild oat [1]; [9]): 9
Wild oats plant response rating (wild oat [1]; [11]): 10
Wild oats plant response rating (wild oat [1]; [12]): 0
Plant response rating, Wild oats (wild oat [1]; [13]): 3
Wild oats plant response rating (wild oat [1]; [14]): 8
Plant response rating, Alexandergrass (Alexandergrass; [15]): 80
Plant response rating, Alexandergrass (Alexandergrass; [16]): 80
Plant response rating, Alexandergrass (Alexandergrass; Rate 250 g/ha): 98
Plant response rating, Alexandergrass (Alexandergrass; Rate 500 g/ha): 100
Plant response rating, Guineagrass (guineagrass; [15]): 100
Plant response rating, Guineagrass (guineagrass; [16]): 100
Plant response rating, Guineagrass (guineagrass; Rate 250 g/ha): 100
Plant response rating, Guineagrass (guineagrass; Rate 500 g/ha): 100
Spanishneedles plant response rating (Spanishneedles; [15]): 10
Spanishneedles plant response rating (Spanishneedles; [16]): 10
Plant response rating, Spanishneedles (Spanishneedles; Rate 250 g/ha): 30
Plant response rating, Spanishneedles (Spanishneedles; Rate 500 g/ha): 75
Tall Mallow plant response rating (tall mallow; [15]): 40
Tall Mallow plant response rating (tall mallow; [16]): 40
Plant response rating, Tall Mallow (tall mallow; Rate 250 g/ha): 70
Plant response rating, Tall Mallow (tall mallow; Rate 500 g/ha): 100
Plant response rating, Wheat (winter) (winter wheat [2]; Rate 62 g/ha, 0 to 100 scale): 60
Plant response rating, Wheat (winter) (winter wheat [2]; Rate 125 g/ha, 0 to 100 scale): 70
Wheat (winter) plant response rating (winter wheat [2]; Rate 250 g/ha, 0 to 100 scale where 0 is no effect and 100 is complete control): 80
Green foxtail plant response rating (Green foxtail [3]; [17]): 100
Plant response rating, Green foxtail (Green foxtail [3]; [17]): 100
Green foxtail plant response rating (Green foxtail [3]; [18]): 100
Plant response rating, Green foxtail (Green foxtail [3]; [18]): 100
Plant response rating, Green foxtail (Green foxtail [3]; [19]): 100
Plant response rating, Green foxtail (Green foxtail [3]; [20]): 100
Plant response rating, Blackgrass (blackgrass; [21]): 50
Plant response rating, Blackgrass (blackgrass; [22]): 60
Blackgrass plant response rating (0 to 100 scale) (blackgrass; Rate 250 g/ha): 70
Plant response rating, Green foxtail (green foxtail [4]; [21]): 60
Plant response rating, Green foxtail (green foxtail [4]; [22]): 70
Green foxtail plant response rating (0 to 100 scale) (green foxtail [4]; Rate 250 g/ha): 75
Plant response rating, I. Ryegrass (Italian ryegrass; [21]): 60
Plant response rating, I. Ryegrass (Italian ryegrass; [22]): 70
I. Ryegrass plant response rating (0 to 100 scale) (Italian ryegrass; Rate 250 g/ha): 80
Plant response rating, Wheat (winter) (winter wheat [5]; [21]): 60
Plant response rating, Wheat (winter) (winter wheat [5]; [22]): 70
Wheat (winter) plant response rating (0 to 100 scale) (winter wheat [5]; Rate 250 g/ha): 80
Plant response rating, Wild oat (wild oat [6]; [21]): 50
Plant response rating, Wild oat (wild oat [6]; [22]): 60
Wild oat plant response rating (0 to 100 scale) (wild oat [6]; Rate 250 g/ha): 65
Plant response rating, Barley (winter) (winter barley; [21]): 30
Plant response rating, Barley (winter) (winter barley; [22]): 60
Barley (winter) plant response rating (0 to 100 scale) (winter barley; Rate 250 g/ha): 90

COc1ccccc1-n1c(=O)on(C(=O)N(c2ccc(F)cc2)C(C)C)c1=O [Compound 30]
Morningglory plant response rating (morningglory; [23]): 1
Morningglory plant response rating (morningglory; [24]): 6
Morningglory plant response rating (morningglory; [25]): 0
Plant response rating, Morningglory (morningglory; [26]): 0
Plant response rating, Morningglory (morningglory; [27]): 0
Plant response rating, Morningglory (morningglory; [28]): 0
Morningglory plant response rating (morningglory; [29]): 1
Morningglory plant response rating (morningglory; [30]): 1
Redroot pigweed plant response rating (pigweed; [23]): 0
Redroot pigweed plant response rating (pigweed; [24]): 0
Redroot pigweed plant response rating (pigweed; [25]): 0
Plant response rating, Redroot pigweed (pigweed; [26]): 0
Plant response rating, Redroot pigweed (pigweed; [27]): 0
Plant response rating, Redroot pigweed (pigweed; [28]): 7
Redroot pigweed plant response rating (pigweed; [29]): 0
Redroot pigweed plant response rating (pigweed; [30]): 0
Wild oats plant response rating (wild oat [1]; [23]): 0
Wild oats plant response rating (wild oat [1]; [24]): 0
Wild oats plant response rating (wild oat [1]; [25]): 0
Plant response rating, Wild oats (wild oat [1]; [27]): 2
Plant response rating, Wild oats (wild oat [1]; [28]): 8
Wild oats plant response rating (wild oat [1]; [30]): 0
Plant response rating, Alexandergrass (Alexandergrass; [31]): 0
Plant response rating, Alexandergrass (Alexandergrass; [32]): 0
Plant response rating, Alexandergrass (Alexandergrass; [15]): 40
Plant response rating, Alexandergrass (Alexandergrass; [16]): 50
Plant response rating, Alexandergrass (Alexandergrass; Rate 250 g/ha): 80
Plant response rating, Alexandergrass (Alexandergrass; Rate 500 g/ha): 90
Plant response rating, Guineagrass (guineagrass; [31]): 30
Plant response rating, Guineagrass (guineagrass; [32]): 30
Plant response rating, Guineagrass (guineagrass; [15]): 40
Plant response rating, Guineagrass (guineagrass; [16]): 75
Plant response rating, Guineagrass (guineagrass; Rate 250 g/ha): 98
Plant response rating, Guineagrass (guineagrass; Rate 500 g/ha): 98
Plant response rating, Spanishneedles (Spanishneedles; [31]): 0
Plant response rating, Spanishneedles (Spanishneedles; [32]): 0
Spanishneedles plant response rating (Spanishneedles; [15]): 0
Spanishneedles plant response rating (Spanishneedles; [16]): 0
Plant response rating, Spanishneedles (Spanishneedles; Rate 500 g/ha): 0
Plant response rating, Tall Mallow (tall mallow; [31]): 0
Plant response rating, Tall Mallow (tall mallow; [32]): 0
Tall Mallow plant response rating (tall mallow; [15]): 0
Tall Mallow plant response rating (tall mallow; [16]): 0
Plant response rating, Tall Mallow (tall mallow; Rate 250 g/ha): 0
Plant response rating, Tall Mallow (tall mallow; Rate 500 g/ha): 0
Plant response rating, Wheat (winter) (winter wheat [2]; Rate 250 g/ha, 0 to 100 scale (0 no effect, 100 complete control)): 0
Plant response rating, Wheat (winter) (winter wheat [2]; Rate 1000 g/ha, 0 to 100 scale, 0 is no effect and 100 is complete control): 0
Plant response rating, Wheat (winter) (winter wheat [2]; Rate 500 g/ha, 0 to 100 scale, 0 no effect, 100 complete control): 0
Plant response rating, Green foxtail (Green foxtail [3]; Preemergence; Rate 16 g/ha; 0 to 100 scale, 0 no injury, 100 complete control): 0
Plant response rating, Green foxtail (Green foxtail [3]; Preemergence; Rate 32 g/ha; 0 to 100 scale, 0 no injury, 100 complete control): 50
Plant response rating, Green foxtail (Green foxtail [3]; Rate 16 g/ha; Preemergence; 0 to 100 scale, 0 no injury, 100 complete control): 0
Green foxtail plant response rating (Green foxtail [3]; [17]): 85
Plant response rating, Green foxtail (Green foxtail [3]; [17]): 85
Green foxtail plant response rating (Green foxtail [3]; [18]): 85
Plant response rating, Green foxtail (Green foxtail [3]; [18]): 85
Plant response rating, Green foxtail (Green foxtail [3]; [19]): 100
Plant response rating, Green foxtail (Green foxtail [3]; [20]): 100
Plant response rating, Blackgrass (blackgrass; Rate 250 g/ha, 0 to 100 scale): 30
Plant response rating, Blackgrass (blackgrass; [33]): 30
Plant response rating, Green foxtail (green foxtail [4]; Rate 250 g/ha, 0 to 100 scale): 30
Plant response rating, Green foxtail (green foxtail [4]; [34]): 60
Plant response rating, Green foxtail (green foxtail [4]; [33]): 60
Plant response rating, I. Ryegrass (Italian ryegrass; Rate 250 g/ha, 0 to 100 scale): 20
Plant response rating, I. Ryegrass (Italian ryegrass; [34]): 40
Plant response rating, I. Ryegrass (Italian ryegrass; [33]): 50
Plant response rating, Wheat (winter) (winter wheat [5]; Rate 250 g/ha, 0 to 100 scale): 0
Plant response rating, Wheat (winter) (winter wheat [5]; [34]): 0
Plant response rating, Wheat (winter) (winter wheat [5]; [33]): 0
Plant response rating, Wild oat (wild oat [6]; [34]): 10
Plant response rating, Wild oat (wild oat [6]; [33]): 20
Plant response rating, Barley (winter) (winter barley; Rate 250 g/ha, 0 to 100 scale): 10
Plant response rating, Barley (winter) (winter barley; [34]): 10
Plant response rating, Barley (winter) (winter barley; [33]): 10
